Results reported in ChEMBL document CHEMBL1140595, “Hybrid molecules between distamycin A and active moieties of antitumor agents” (Bioorg Med Chem, 2007).

Legend:
[1] = test system: L1210; assay: Antiproliferative activity against mouse L1210 cells; type: functional, cell-based
[2] = test system: Daudi; assay: Antiproliferative activity against human Daudi cells; type: functional, cell-based
[3] = test system: MOLT-4; assay: Antiproliferative activity against human Molt/4 cells; type: functional, cell-based
[4] = test system: CCRF-CEM; assay: Antiproliferative activity against human CEM cells; type: functional, cell-based
[5] = test system: FM3A; assay: Antiproliferative activity against mouse FM3A cells; type: functional, cell-based
[6] = test system: K562; assay: Antiproliferative activity against human K562 cells; type: functional, cell-based
[7] = test system: Jurkat; assay: Antiproliferative activity against human Jurkat cells; type: functional, cell-based
[8] = Inhibition of telomerase activity in human melanoma cell extracts
[9] = test system: CCRF-SB; assay: Antiproliferative activity against human CCRF-SB cells; type: functional, cell-based
[10] = test system: Raji; assay: Antiproliferative activity against human Raji cells; type: functional, cell-based
[11] = test system: CCRF-CEM; assay: Antiproliferative activity against human CCRF-CEM cells; type: functional, cell-based
[12] = test system: WIL2-NS; assay: Antiproliferative activity against human Wil2-NS cells; type: functional, cell-based

| Compound | IC50 [1] | IC50 [3] | IC50 [4] | IC50 [6] | IC50 [5] | also measured |
| --- | --- | --- | --- | --- | --- | --- |
| CC(C)(C)OC(=O)N1CC2CC23C1=CC(=O)c1c3cnn1Cc1ccccc1 (centres undefined) | 2.71 µM | 8.55 µM | 6.72 µM | – | 18.3 µM | IC50 [2]: 7.52 µM |
| COc1cc2c(cc1O)N=C[C@@H]1CCCN1C2=O | – | – | – | 1 µM | – | IC50 [7]: 2.2 µM |
| COC(=O)C1(O)C(OC)=CC(=O)N1CCCC(=O)Nc1cc(C(=O)Nc2cc(C(=O)Nc3cc(C(=O)NCCCN(C)C)n(C)c3)n(C)c2)n(C)c1 (centres undefined) | > 200 µM | – | – | – | – | – |
| Cc1n[nH]c2c1C13CC1CN(C(=O)OC(C)(C)C)C3=CC2=O (centres undefined) | 0.52 µM | 1.74 µM | 1.26 µM | – | 1.4 µM | IC50 [2]: 0.68 µM |
| Cn1cc(NC(=O)c2cc(NC(=O)c3cc(NC(=O)c4cc(NC(=O)c5cc(NC=O)cn5C)cn4C)cn3C)cn2C)cc1C(=O)NCCC(=N)N | – | – | – | – | – | IC50 [8]: 24 µM |
| Cn1cc(NC(=O)c2cc(NC(=O)c3cc(NC(=O)CCCn4cc(F)c(=O)[nH]c4=O)cn3C)cn2C)cc1C(=O)NCCC(=N)N | – | – | – | 82 µM | – | – |
| Cn1cc(NC(=O)c2cc(NC(=O)c3cc(NC(=O)CCCCCCn4cc(F)c(=O)[nH]c4=O)cn3C)cn2C)cc1C(=O)NCCC(=N)N | – | – | – | 50 µM | – | – |
| COc1cc2c(cc1OCCC(=O)Nc1cc(C(=O)NCCC(=N)N)n(C)c1)N=C[C@@H]1CCCN1C2=O | – | – | – | > 100 µM | – | – |
| C=C1CC(C)(COc2cc(C(=O)Nc3cc(C(=O)NCCC(=N)N)n(C)c3)n(C)n2)OC1=O (centres undefined) | 24.3 µM | 22.3 µM | 26.3 µM | – | 32.4 µM | – |
| Cn1cc(NC(=O)c2cc(NC(=O)c3cc(NC(=O)Cn4cc(F)c(=O)[nH]c4=O)cn3C)cn2C)cc1C(=O)NCCC(=N)N | – | – | – | > 200 µM | – | – |
| C=C1CC(COc2cc(C(=O)Nc3cc(C(=O)NCCC(=N)N)n(C)c3)n(C)n2)(c2ccccc2)OC1=O (centres undefined) | 12.5 µM | 15.8 µM | 18.9 µM | – | 36.3 µM | – |
| Cn1cc(NC(=O)c2cc(NC(=O)c3cc(NC(=O)[C@@H](N)CS)cn3C)cn2C)cc1C(=O)NCCC(=N)N | – | 35.8 µM | – | 24.2 µM | – | IC50 [9]: 92 µM; IC50 [10]: 45 µM; IC50 [11]: 36.7 µM; IC50 [12]: 98 µM |
| Cn1cc(NC(=O)c2cc(NC(=O)c3cc(NC(=O)C(N)CN)cn3C)cn2C)cc1C(=O)NCCC(=N)N (centres undefined) | – | 38.8 µM | – | 21.7 µM | – | IC50 [9]: 97 µM; IC50 [10]: 42.8 µM; IC50 [11]: 40.6 µM; IC50 [12]: 108 µM |
| Cn1cc(NC(=O)c2cc(NC(=O)c3cc(NC(=O)CCCCn4cc(F)c(=O)[nH]c4=O)cn3C)cn2C)cc1C(=O)NCCC(=N)N | – | – | – | 153 µM | – | – |
| Cn1cc(NC(=O)c2cc(NC(=O)c3cc(NC(=O)CCCCCn4cc(F)c(=O)[nH]c4=O)cn3C)cn2C)cc1C(=O)NCCC(=N)N | – | – | – | 50 µM | – | – |
| Cn1cc(NC(=O)c2cc(NC(=O)c3cc(NC=O)cn3C)cn2C)cc1C(=O)NCCC(=N)N [STALLIMYCIN] | 133 µM | 64.6 µM | 113 µM | – | 150 µM | – |

More lines, main results first:

| IC50 [1] | IC50 [3] | IC50 [4] | IC50 [6] | Compound | IC50 [5] | also measured |
| --- | --- | --- | --- | --- | --- | --- |
| 9.6 µM | 12.3 µM | 15.9 µM | – | C=C1CC(C)(COc2cc(C(=O)Nc3cc(C(=O)Nc4cc(C(=O)Nc5cc(C(=O)NCCNC(=N)N)n(C)c5)n(C)c4)n(C)c3)n(C)n2)OC1=O (centres undefined) | 42.5 µM | – |
| 5.1 µM | 10.1 µM | 10 µM | – | C=C1CC(COc2cc(C(=O)Nc3cc(C(=O)Nc4cc(C(=O)Nc5cc(C(=O)NCCNC(=N)N)n(C)c5)n(C)c4)n(C)c3)n(C)n2)(c2ccccc2)OC1=O (centres undefined) | 20.5 µM | – |
| 26.7 µM | 71.1 µM | 35.6 µM | – | C=C1CC(C)(CCCCCCCOc2cc(C(=O)Nc3cc(C(=O)Nc4cc(C(=O)Nc5cc(C(=O)NCCC(=N)N)n(C)c5)n(C)c4)n(C)c3)n(C)n2)OC1=O (centres undefined) | 63.3 µM | – |
| 8.02 µM | 6.8 µM | 9.6 µM | – | C=C1CC(C)(COc2cc(C(=O)Nc3cc(C(=O)Nc4cc(C(=O)NCCC(=N)N)n(C)c4)n(C)c3)n(C)n2)OC1=O (centres undefined) | 27.6 µM | – |
| 195 µM | 254 µM | 255 µM | – | C=C1CC(C)(CCCOc2cc(C(=O)Nc3cc(C(=O)Nc4cc(C(=O)Nc5cc(C(=O)NCCC(=N)N)n(C)c5)n(C)c4)n(C)c3)n(C)n2)OC1=O (centres undefined) | 243 µM | – |
| 14.7 µM | 14.7 µM | 15.9 µM | – | C=C1CC(C)(COc2cc(C(=O)Nc3cc(C(=O)Nc4cc(C(=O)Nc5cc(C(=O)NCCC(=N)N)n(C)c5)n(C)c4)n(C)c3)n(C)n2)OC1=O (centres undefined) | 49 µM | – |
| 25.2 µM | 79.1 µM | 86.3 µM | – | C=C1CC(COc2cc(C(=O)Nc3cc(C(=O)Nc4cc(C(=O)Nc5cc(C(=O)NCCC(=N)N)n(C)c5)n(C)c4)n(C)c3)n(C)n2)(c2ccc(Cl)cc2)OC1=O (centres undefined) | 64.7 µM | – |
| 4.2 µM | 5.2 µM | 9.7 µM | – | C=C1CC(COc2cc(C(=O)Nc3cc(C(=O)Nc4cc(C(=O)Nc5cc(C(=O)NCCC(=N)N)n(C)c5)n(C)c4)n(C)c3)n(C)n2)(c2ccccc2)OC1=O (centres undefined) | 17.5 µM | – |
| – | – | – | 23 µM | Cn1cc(NC(=O)c2cc(NC(=O)c3cc(NC(=O)CCn4cc(F)c(=O)[nH]c4=O)cn3C)cn2C)cc1C(=O)NCCC(=N)N | – | – |
| 109 µM | 106 µM | 74.3 µM | – | C=C1CC(C)(CCCCCOc2cc(C(=O)Nc3cc(C(=O)Nc4cc(C(=O)Nc5cc(C(=O)NCCC(=N)N)n(C)c5)n(C)c4)n(C)c3)n(C)n2)OC1=O (centres undefined) | 92 µM | – |
| 4.1 µM | 4.6 µM | 5.7 µM | – | C=C1CC(COc2cc(C(=O)Nc3cc(C(=O)Nc4cc(C(=O)NCCC(=N)N)n(C)c4)n(C)c3)n(C)n2)(c2ccccc2)OC1=O (centres undefined) | 18.5 µM | – |
| 33.2 µM | 65.3 µM | 95 µM | – | C=C1CC(COc2cc(C(=O)Nc3cc(C(=O)Nc4cc(C(=O)Nc5cc(C(=O)NCCC(=N)N)n(C)c5)n(C)c4)n(C)c3)n(C)n2)(c2ccc(-c3ccccc3)cc2)OC1=O (centres undefined) | 21.8 µM | – |
